Absorption maximum data for 45 compounds are collected here from the Deep4Chem optical property database.

The data set in a line: solvent given as SMILES.

In the case of `CC(C)(C)c1ccc(C#Cc2nc(C#Cc3ccc(C(C)(C)C)cc3)c(C#Cc3ccc(C(C)(C)C)cc3)c(C#Cc3ccc(C(C)(C)C)cc3)c2C#Cc2ccc(C(C)(C)C)cc2)cc1`, where the note is “in ClCCl”, the absorption maximum worked out at 421 nm.

The compound `CC1(C)c2ccccc2N(c2ccc3c(c2)c(=O)c2cccc4c(=O)c5cc(N6c7ccccc7C(C)(C)c7ccccc76)ccc5n3c24)c2ccccc21` returned an absorption maximum (in Cc1ccccc1) of 432.96 nm.

Turning to `CCOC(=O)c1cc(C(=O)OCC)c2cc([N+](=O)[O-])ccc2n1`, where the note is “in CCO”, the absorption maximum is listed as 304 nm.

`CC(C)(C)c1ccc(-c2cc3cc4c(cc(-c5ccc(C(C)(C)C)cc5)p4-c4ccccc4)cc3p2-c2ccccc2)cc1` (stereo not drawn) yielded an absorption maximum (in C1CCOC1) of 396 nm.

Turning to `Cc1ccc(C2=C3C=CC=[N+]3[B-](F)(F)n3cccc32)cc1`, the absorption maximum amounted to 500.5 nm (in C1CCCCC1); 496.5 nm (in CC#N); 497.5 nm (in CCO); 497 nm (in CCOC(C)=O); 496 nm (in CO); 493 nm (in OCC(F)(F)F).

On to `CCCCN1C(=O)C2=C(c3ccc(-c4ccccc4)cc3)NC(=O)C2=C1c1ccc(-c2ccccc2)cc1`, for which the absorption maximum (in ClCCl) was determined as 485 nm.

The compound `C(=C1c2ccccc2CCc2ccccc21)c1ccc(-c2ccc(C=C3c4ccccc4CCc4ccccc43)cc2)cc1` came in with an absorption maximum (in C1CCOC1) of 335 nm.

In the case of `N#CC(C#N)=C(/C=C/c1cc2c3c(c1)CCCN3CCC2)c1ccc2c3c(cccc13)CC2`, the absorption maximum stood at 527 nm (in C1CCOC1); 540 nm (in CC#N); 535 nm (in CC(C)=O); 523 nm (in CCOC(C)=O); 550 nm (in CN(C)C=O); 541 nm (in CO). Moreover, the absorption maximum came to 526 nm (in Cc1ccccc1) and 538 nm (in ClC(Cl)Cl).

`CC(C)[Si](C#Cc1c2ccccc2c(C#C[Si](C(C)C)(C(C)C)C(C)C)c2nc3c(ccc4cc5ccccc5cc43)nc12)(C(C)C)C(C)C` had an absorption maximum (in CCCCCC) of 536 nm.

Take `COc1nc(Nc2cc3ccc4cccc5ccc(c2)c3c45)nc(OC)n1`: the absorption maximum turned out to be 336 nm (in CC#N), 336 nm (in CCCCOCCCC) and 334 nm (in CO).

In turn, `CCCCN(CCCC)c1ccc(C#Cc2cc(C#Cc3ccc(C#N)cc3)c(C#Cc3ccc(N(CCCC)CCCC)cc3)cc2C#Cc2ccc(C#N)cc2)cc1` gave an absorption maximum (in ClCCl) of 454 nm.

Compound `c1ccc2c(c1)Sc1ccccc1N2c1ccc2c(c1)C1(CC1)c1cc(N3c4ccccc4Sc4ccccc43)ccc1-2` gave an absorption maximum (in Cc1ccccc1) of 307 nm.

Turning to `CC1(C)CC(=O)c2cc(F)c(F)cc2N1`, the absorption maximum came out at 369 nm (in CC#N) and 381 nm (in CCO).

Where the note is “in ClCCl”, `N#Cc1ccc(-n2c(-c3ccc(-c4ccc(-c5nc6c7ccccc7c7ccccc7c6n5-c5ccc(C#N)c6ccccc56)cc4)cc3)nc3c4ccccc4c4ccccc4c32)c2ccccc12` came in with an absorption maximum of 340 nm.

Where the note is “in O”, `O=S(=O)([O-])c1cccc2c(O)cccc12` returned an absorption maximum of 304 nm.

`CC[N+]1(CC)CN2C(=N1)C(C(=O)O)=Cc1cc(F)ccc12` displayed an absorption maximum (in O) of 375 nm.

`Fc1ccc(C#Cc2cc(C#Cc3ccc(F)cc3)c(C#Cc3ccc(F)cc3)c(C#Cc3ccc(F)cc3)c2C#Cc2ccc(F)cc2)cc1` yielded an absorption maximum (in ClCCl) of 371 nm.

On to `COc1c2ccccc2c(OC)c2c1c1c(C)ccc(OC)c1n2C`, for which the absorption maximum is, setting by setting: (in C1CCCCC1) 417 nm; (in CC#N) 416 nm; (in CO) 414 nm; (in ClCCl) 418 nm.

Consider `Fc1ccc(-c2cccc3ncc(-c4ccccc4)n23)cc1`, for which, under “in ClCCl”, the absorption maximum is 336 nm.

With `COc1cc(-c2nc3c4cccnc4c4ncccc4c3[nH]2)c(OC)cc1/C=C/c1ccncc1`, the absorption maximum is 394 nm (in C1CCOC1), 392 nm (in CC#N), 396 nm (in CN(C)C=O) and 395 nm (in Cc1ccccc1).

`N#Cc1c(N2CCCCC2)cc(-c2ccccc2)c2c1C(=O)c1ccccc1-2` showed an absorption maximum (in C1CCOC1) of 348 nm.

As for `CC[n+]1c(C=C2C(=O)C(C=C3N(C)c4ccccc4C3(C)C)=C2[O-])sc2ccccc21`, the absorption maximum runs as follows: (in CO) 635 nm; (in ClC(Cl)Cl) 649 nm; (in ClCCl) 650 nm.

In the case of `Cc1cccc2[n+]1[B-](F)(F)n1c(c3cccc4cccc1c43)=N2`, the absorption maximum is reported as 472 nm (in C1CCOC1); 465 nm (in CC#N); 464 nm (in CCCCCC); 475 nm (in Cc1ccccc1); 441 nm (in ClCCl).

For the setting “in ClCCl”, `CCN(CC)c1ccc2cc(-c3nc4c5ccccc5c5ccccc5c4n3-c3ccc(C(C)(C)C)cc3)c(=O)oc2c1` showed an absorption maximum of 410 nm.

Turning to `CCCCC(CC)Cn1c2cc(C#N)ccc2c2ccc(C#N)cc21` (stereo not drawn), the absorption maximum (in ClCCl) worked out at 387 nm.

As for `CCCCCCOc1ccc(-c2cnc(-c3nnc(-c4ccc(OCCCCCC)cc4)o3)o2)cc1`, the absorption maximum (in C1CCCCC1) is on record as 316 nm; the absorption maximum (in C1CCOC1) is recorded as 319 nm; the absorption maximum (in CC#N) is 320 nm; the absorption maximum (in CCO) came to 322 nm; the absorption maximum (in CO) was determined as 320 nm; the absorption maximum (in ClC(Cl)Cl) worked out at 325 nm.

With `CC(C)(C)c1ccc(C2=C(c3ccc(C(C)(C)C)cc3)C(c3ccc(C(C)(C)C)cc3)=[N+]3C2=C(c2ccccc2)c2c(-c4ccc(C(C)(C)C)cc4)c(-c4ccc(C(C)(C)C)cc4)c(-c4ccc(C(C)(C)C)cc4)n2[B-]3(F)F)cc1`, the absorption maximum by setting is: (in C1CCCCC1) 589 nm; (in C1CCOC1) 585 nm; (in CC#N) 563 nm; (in Cc1ccccc1) 591 nm; (in ClCCl) 579 nm.

As for `CC(NC(=O)OC(C)(C)C)C(=O)OCc1ccc2c3cccc4cccc(c5cccc1c52)c43` (stereo not drawn), the absorption maximum (in CCO) stood at 437 nm.

With `c1ccc(C2=C(c3ccccc3)c3cccc4c3c(cc3nc5ccccc5nc34)O2)cc1`, the absorption maximum (in ClCCl) came to 494 nm.

For `CCCCCCn1c2c(c3ccccc31)-c1c(c3ccccc3n1CCCCCC)-c1c(c3ccccc3n1CCCCCC)-c1c-2c2ccccc2n1CCCCCC`, the absorption maximum (in ClCCl) was found to be 312 nm.

`COCCOCCOCCOCC(COCCOCCOCCOC)Oc1cc(/C=C/c2ccc(/C=C(\C#N)c3ccccn3)cc2)c(OC(COCCOCCOCCOC)COCCOCCOCCOC)cc1/C=C/c1ccc(/C=C(\C#N)c2ccccn2)cc1`: the absorption maximum (in ClCCl) worked out at 443 nm.

Regarding `COc1ccc(C2=Nc3cccc4[n+]3[B-](F)(O2)OC(c2ccc(OC)cc2)=N4)cc1`, the absorption maximum (in ClCCl) turned out to be 399 nm.

Turning to `O=P1(c2ccccc2)c2cccc3c4ccccc4c4ccc1n4c23` (stereo not drawn), under “in ClCCl”, the absorption maximum is given as 378 nm.

With `CSc1ccc(/C=C/c2ccncn2)cc1`, the absorption maximum (in ClCCl) stood at 346 nm.

As to `O=C1C2=C(O[B-](F)(F)[n+]3c2ccc2ccccc23)c2ccc(N3CCOCC3)c3cccc1c23`, the absorption maximum is, setting by setting: (in C1CCOC1) 464 nm; (in CC#N) 468 nm; (in CCO) 460 nm; (in CO) 461 nm; (in ClCCl) 468 nm.

As to `O=C(N/N=C/c1ccccc1O)c1ccc([N+](=O)[O-])cc1`, the absorption maximum is 338 nm (in C1CCOC1); 339 nm (in CC#N); 350 nm (in CC(C)=O); 345 nm (in CCO); 380 nm (in CN(C)C=O); 342 nm (in CS(C)=O). Where the note is “in ClCCl”, this compound had an absorption maximum of 340 nm.

Regarding `Cc1ccc(N2C(c3ccccc3N(C)C)=NC(c3ccccc3)C2c2ccccc2)cc1` (stereo not drawn), where the note is “in Cc1ccccc1”, the absorption maximum is on record as 275 nm.

Where the note is “in C1CCOC1”, `CC(C)(C)c1ccc(C2=C(c3ccc(-n4c5ccc(C(C)(C)C)cc5c5cc(C(C)(C)C)ccc54)cc3)S(=O)(=O)c3c2sc(-c2ccc(-n4c5ccc(C(C)(C)C)cc5c5cc(C(C)(C)C)ccc54)cc2)c3-c2ccc(C(C)(C)C)cc2)cc1` gave an absorption maximum of 429 nm.

As for `COc1cc(-c2nc3sc4ccccc4c3s2)cc(OC)c1OC`, where the note is “in CS(C)=O”, the absorption maximum was 358 nm.

Take `COc1ccc(N(c2ccc(C=C(c3ccccc3)c3ccccc3)cc2)c2ccc(OC)cc2)cc1`: where the note is “in Cc1ccccc1”, the absorption maximum was 376 nm.

`CC(C)(C)c1ccc2cc3c4cccc5cccc(c6cc(C(C)(C)C)cc(c2c1)c63)c54` displayed an absorption maximum (in CC1CCCCC1) of 438 nm.

Regarding `CCN(CC)c1ccc2cc(-c3nc4ccccc4n3-c3ccccc3)c(=O)oc2c1`, the absorption maximum (in ClCCl) amounted to 410 nm.

On to `COC(=O)C(NC(=O)OC(C)(C)C)c1ccc2oc(-c3ccc(N(C)C)cc3OC)nc2c1` (stereo not drawn), for which the absorption maximum (in CC1CCCCC1) stood at 336 nm, the absorption maximum (in CC#N) came out at 343 nm and the absorption maximum (in CO) is 346 nm.

As for `O=C1CCCC2=C1CC1=C(CCCC1=O)N2NC(=O)c1ccc(O)cc1`, the absorption maximum is, setting by setting: (in CC#N) 368 nm; (in CC(C)=O) 368 nm; (in CCCCCO) 376 nm; (in CO) 376 nm; (in ClC(Cl)Cl) 368 nm; (in ClCCl) 372 nm.

For the setting “in ClCCl”, `COc1cc(-c2cnc(-c3ccncc3)o2)cc(OC)c1OC` displayed an absorption maximum of 332 nm.
